Reference: patent publication US20240024273A1, “TOPICAL ADMINISTRATION OF 2-(DIETHYLAMINO)ETHYL 2-(4-ISOBUTYLPHENYL)PROPRIONATE FOR TREATMENT OF DISEASES” (TECHFIELDS PHARMA CO., LTD., priority 2020, published 2024)
Read-outs that look alike come from different tables or passages of the source.

Test: 28-day GLP repeated dermal dose toxicity and toxicokinetics study
Parameters: species or system Beagle dogs
Conditions: beagle, dog, in vivo, topical or ocular, 28-day dermal

**Q.** For CCN(CC)CCOC(=O)C(C)c1ccc(CC(C)C)cc1 (centres unmarked) [2-(diethylamino)ethyl 2-(4-isobutylphenyl)propionate], which NOAEL at 28 days (read-out: NOAEL (not attained; ulcers at application site at lowest dose)) is on record?
**A.** The NOAEL at 28 days was less than 12.4 mg/kg/day.

**Q.** What about the NOAEL at 28 days (read-out: systemic NOAEL (tissues other than the dermal application site)) of the same molecule?
**A.** The NOAEL at 28 days was 24.8 mg/kg/day.
